{
  "source": "patent US20230057359A1",
  "about": "“NOVEL USE OF STEVIOL” (SUNTORY HOLDINGS LIMITED, priority 2019, published 2023)",
  "key": {"[1]": {"system": "adipocytes differentiated from normal human subcutaneous preadipocytes", "experiment": "Sugar uptake test in adipocytes (intracellular 2DG6P, Glucose Uptake-Glo)", "format": "cell-based", "settings": "for Relative luminescence intensity (%) (relative intracellular 2DG6P level): 4 hours, DMSO=100%", "method": "Normal human subcutaneous preadipocytes were precultured using the growth medium in the same manner as in Example 1. The cells were detached using 0.25% trypsin-EDTA, seeded at 10,000 cells/100 μL/well to a 96-well plate using the growth medium, and cultured overnight in a CO2 incubator. On the next day, the medium was replaced with the differentiation medium (100 μL). The cells were cultured for 10 days in a CO2 incubator to induce their differentiation into adipocytes. On the fourth and seventh days after the differentiation induction, the medium was replaced with a fresh differentiation medium (100 μL). Next, the medium was replaced with 100 μLL of a serum-free medium (PBM-2 medium supplemented with 2 mM L-glutamine, 50 μg/mL gentamycin, and 37 ng/mL amphotericin-B, Cat. No. PT-8002, Lonza Group AG), and the cells were cultured for 18 hours in a CO2 incubator. Subsequently, the medium was replaced with 100 μL of a glucose-free serum-free medium (DMEM, no glucose, Cat. No. 11966025, Thermo Fisher Scientific Inc.) supplemented with varying concentrations of steviol (10, 30 or 100 μg/mL, dissolved in 0.1% DMSO (final concentration)), and the cells were cultured for 4 hours in a CO2 incubator. A glucose-free serum-free medium supplemented with 100 μM acadesine (AICAR, Cat. No. A9978, Sigma-Aldrich Co., LLC) was used as a positive control, and a vehicle control composed of a glucose-free serum-free medium supplemented with 0.1% DMSO (final concentration) and a no-addition control composed of only a glucose-free serum-free medium were used as negative controls. After culture, intracellular 2-deoxyglucose-6-phosphate (2DG6P, 2-deoxyglucose (2DG) phosphorylation product) level was measured by the following procedures using Glucose Uptake-Glo Assay kit (Cat. No. J1341, Promega Corp.). The medium of each well was replaced with a DPBS solution (50 μL) supplemented with 1 mM 2DG. After incubation at room temperature for 10 minutes, a stop buffer (25 μL), a neutralization buffer (25 μL), and a 2DG6P detection reagent (100 μL) were added thereto. After incubation at room temperature for 60 minutes, luminescence intensity was measured using a plate reader (VARIOSKAN FLASH, Thermo Fisher Scientific Inc.), and relative luminescence intensity was regarded as a relative intracellular 2DG6P level. Significant difference among the test groups to be compared (no-addition group vs positive control group, vehicle control group vs steviol addition group) was tested by the Student's t test. The two-tailed test was conducted, and P<0.05 was regarded as having significant difference."}, "[2]": {"system": "HepG2 cells", "experiment": "Cytotoxicity of steviol to hepatocytes (WST-8 viable cell count)", "format": "cell-based", "settings": "for Relative viable cell count (%): 24 hours, Control=100%", "method": "5×10^5 HepG2 cells (Cat. No. JCRB1054, JCRB) were precultured for 5 days in a T75 flask using a growth medium (DMEM (high glucose, Cat. No. D5796, Sigma-Aldrich Co., LLC) supplemented with 10% FBS (Cat. No. 172012, Sigma-Aldrich Co., LLC) and 1% penicillin-streptomycin (Cat. No. 09367-34, Nacalai Tesque Inc.)) in a CO2 incubator. The cells were detached using 0.25% trypsin-EDTA, seeded at 10,000 cells/100 μL/well to a 96-well plate using the growth medium, and cultured overnight in a CO2 incubator. On the next day, the medium was replaced with 100 μL of a growth medium supplemented with varying concentrations of steviol (0.001, 0.01, 0.1, 1, 10 or 100 μg/mL, dissolved in 0.1% DMSO (final concentration)), and the cells were cultured for 24 hours in a CO2 incubator. A vehicle control composed of a growth medium supplemented with 0.1% DMSO (final concentration) was used as a negative control (Control). Viable cell count measurement was performed by the WST-8 method. Specifically, the medium of each well after culture was replaced with 100 μL of growth medium supplemented with a 1/10 amount of viable cell count measurement reagent SF, and the cells were incubated in a CO2 incubator. 30 minutes later and 90 minutes later, absorbance (450 nm, reference wavelength: 630 nm) was measured using a plate reader (VARIOSKAN FLASH, Thermo Fisher Scientific Inc.), and absorbance difference per 60 minutes was regarded as a relative viable cell count."}},
  "data": [
    {"smiles": "C=C1C[C@@]23CC[C@H]4[C@@](C)(CCC[C@@]4(C)C(=O)O)[C@@H]2CC[C@]1(O)C3", "note": "[Steviol, steviol]", "values": [
      {"measurement": "sugar uptake in adipocytes (in words)", "setting": "[1]; 10, 30 or 100 μg/mL", "value": "promoted sugar uptake in adipocytes in a concentration-dependent manner"},
      {"measurement": "Relative luminescence intensity (%) (relative intracellular 2DG6P level)", "setting": "[1]; steviol 10 μg/mL", "value": 109.6, "unit": "%"},
      {"measurement": "Relative luminescence intensity (%) (relative intracellular 2DG6P level)", "setting": "[1]; steviol 30 μg/mL", "value": 142.5, "unit": "%"},
      {"measurement": "Relative luminescence intensity (%) (relative intracellular 2DG6P level)", "setting": "[1]; steviol 100 μg/mL", "value": 216.2, "unit": "%"},
      {"measurement": "cytotoxicity to hepatocytes (in words)", "setting": "[2]; 100 μg/mL steviol", "value": "no particular cytotoxicity to be noted was found"},
      {"measurement": "Relative viable cell count (%)", "setting": "[2]; steviol 0.01 μg/mL", "value": 98.8, "unit": "%"},
      {"measurement": "Relative viable cell count (%)", "setting": "[2]; steviol 0.1 μg/mL", "value": 98.4, "unit": "%"},
      {"measurement": "Relative viable cell count (%)", "setting": "[2]; steviol 1 μg/mL", "value": 95.3, "unit": "%"},
      {"measurement": "Relative viable cell count (%)", "setting": "[2]; steviol 10 μg/mL", "value": 95.6, "unit": "%"},
      {"measurement": "Relative viable cell count (%)", "setting": "[2]; steviol 100 μg/mL", "value": 87.7, "unit": "%"}
    ]}
  ]
}
